Laboratory results reported in patent publication US12071404B2, “Aza (indole)-, benzothiophene-, and benzofuran-3-sulfonamides” (UCB Pharma GmbH, priority 2016, dated 2024).

How the values were obtained:
[1] = target: T1, GPR17 (Homo sapiens, UniProt Q13304); assay: Calcium mobilization functional assay (GPR17 Ca2+ assay); type: cell-based; design: host or cells: Flp-In T-REx CHO; details: CHO hGPR17 cells, inhibition of 50 nM MDL29,951, Calcium 5 dye, FLIPR; read-out: Ca2+ assay pIC50 (converted)
T1 sequence (Q13304 whole entry): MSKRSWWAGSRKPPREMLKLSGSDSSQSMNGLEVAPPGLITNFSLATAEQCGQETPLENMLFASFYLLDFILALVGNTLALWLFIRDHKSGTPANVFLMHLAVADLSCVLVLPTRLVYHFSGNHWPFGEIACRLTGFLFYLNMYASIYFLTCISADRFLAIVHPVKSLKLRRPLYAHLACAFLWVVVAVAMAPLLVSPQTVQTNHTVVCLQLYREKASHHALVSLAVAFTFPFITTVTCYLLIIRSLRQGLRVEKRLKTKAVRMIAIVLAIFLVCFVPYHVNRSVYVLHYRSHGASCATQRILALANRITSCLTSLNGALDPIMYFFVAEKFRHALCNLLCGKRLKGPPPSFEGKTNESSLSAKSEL
How it was run: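 pIC50 values were fitted with a 4-parameter logistic curve. They reflect test-compound inhibition of cytosolic Ca2+ release evoked by 50 nM MDL29,951, tracked as Calcium 5 fluorescence at room temperature. Cells were CHO Flp-In T-REx stably carrying human GPR17, induced with doxycycline 1 μg/mL for 16-20 h.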

[2] = target: T1, GPR17; assay: cAMP accumulation functional assay (HTRF, Schild analysis); type: cell-based; design: host or cells: Flp-In T-REx CHO; details: CHO hGPR17 cells, Schild analysis vs MDL29,951, 5 μM forskolin, read-out: cAMP assay pA2 (converted)
Procedure: Flp-In T-REx CHO cells stably expressing human GPR17 receptor (CHO hGPR17) from Evi Kostenis' lab (Bonn University, Germany) were cultured at 37° C. in a humidified atmosphere of 5% CO2. Cells were grown in DMEM with Nutrient Mixture F-12 supplemented with hygromycin B (500 μg/mL) and blasticidin (30 μg/mL). Expression from the Flp-In locus was induced by treatment with doxycycline (1 μg/mL) for 16-20 h prior assays.
GPR17 activation can also recruit Gi-type G-protein signaling, resulting in a decrease of intracellular cyclic adenosine monophosphate (cAMP). Intracellular cAMP changes can be measured using the HTRF cAMP dynamic assay kit from CisBio (Codolet, France). Using homogenous time-resolved fluorescence technology (HTRF), the assay is based on competition between native cAMP produced by cells and cAMP labelled with the dye d2. The tracer binding was determined by an anti-cAMP antibody labeled with cryptate.
CHO hGPR17 were detached with PBS containing EDTA and dispatched in black 384-well plates with 5,000 cells per well. Cells were first incubated for 30 minutes at room temperature in HBSS Hepes (pH 7.4) containing vehicle or varying concentrations of test GPR17 antagonist/inverse agonist compounds. […] After 60 minutes incubation at room temperature, the reaction is terminated and the cells lysed by adding the d2 detection reagent and the cryptate reagent in 10 μL lysis buffer each according to manufacturer's instructions. After 60 minutes incubation, changes in cAMP concentrations are measured according to manufacturer's instructions using an Envision plate reader with laser excitation. All incubations were performed in duplicate. Data was analyzed using GraphPad Prism software using the 4-parameter logistic equation to measure MDL29,951 pEC50s in absence and presence of GPR17 antagonist/inverse agonist test compounds. Dose ratio (DR) were plotted against antagonist concentrations and Schild analysis provided estimated affinity pA2 of GPR17 antagonist/inverse agonist test compounds.
The activities of the Example compounds tested are depicted in the table below. The activity ranges A, B and C refer to pA2 values in the cAMP assay as follows: “A”: pA2<7.5, “B”: pA2 7.5<x≤8.5, “C”: pA2>8.5.

IC50 [1] [nM]	Kb [2] [nM]	Compound
< 3.16	< 3.16	COc1nc(NS(=O)(=O)c2csc3cc(Cl)ccc23)c(F)cc1CC#N [Compound I-315, 6-chloro-N-[5-(cyanomethyl)-3-fluoro-6-methoxypyridin-2-yl]-1-benzothiophene-3-sulfonamide]
< 3.16	< 3.16	O=S(=O)(Nc1nc(F)c(Br)cc1F)c1c[nH]c2cc(Cl)ccc12 [Compound I-245, N-(5-bromo-3,6-difluoropyridin-2-yl)-6-chloro-1H-indole-3-sulfonamide]
3.16 to 31.6	3.16 to 31.6	O=S(=O)(Nc1cccc2c1OC(F)(F)O2)c1c[nH]c2c1ccc1cccnc12 [Compound I-66, N-(2,2-difluoro-1,3-benzodioxol-4-yl)-1H-pyrrolo[3,2-h]quinoline-3-sulfonamide]
< 3.16	3.16 to 31.6	O=S(=O)(Nc1ncc(Cl)cc1F)c1c[nH]c2cc(Cl)ccc12 [Compound I-202, 6-chloro-N-(5-chloro-3-fluoropyridin-2-yl)-1H-indole-3-sulfonamide]
3.16 to 31.6	3.16 to 31.6	CC(=O)c1ccc(NS(=O)(=O)c2c[nH]c3cc(Cl)ccc23)c(F)c1 [Compound I-219, N-(4-acetyl-2-fluorophenyl)-6-chloro-1H-indole-3-sulfonamide]
< 3.16	< 3.16	COc1cc(C#N)c(F)cc1NS(=O)(=O)c1c[nH]c2cc(Cl)ccc12 [Compound I-286, 6-chloro-N-(4-cyano-5-fluoro-2-methoxyphenyl)-1H-indole-3-sulfonamide]
< 3.16	< 3.16	O=S(=O)(Nc1nc(F)c(OCCF)cc1F)c1c[nH]c2cc(Cl)ccc12 [Compound I-364, 6-chloro-N-[3,6-difluoro-5-(2-fluoroethoxy)pyridin-2-yl]-1H-indole-3-sulfonamide]
< 3.16	3.16 to 31.6	N#Cc1ccc(NS(=O)(=O)c2c[nH]c3cc(OCc4ccccc4)ccc23)c(F)c1 [Compound I-154, 6-(benzyloxy)-N-(4-cyano-2-fluorophenyl)-1H-indole-3-sulfonamide]
< 3.16	< 3.16	O=S(=O)(Nc1cccc2nsnc12)c1c[nH]c2cc(Br)ccc12 [Compound I-110, N-(2,1,3-benzothiadiazol-4-yl)-6-bromo-1H-indole-3-sulfonamide]
3.16 to 31.6	< 3.16	CCOC(=O)/C=C/c1cc(F)c(NS(=O)(=O)c2c[nH]c3cc(Cl)ccc23)nc1F [Compound I-330, Ethyl (2E)-3-(6-{[(6-chloro-1H-indol-3-yl)sulfonyl]amino}-2,5-difluoropyridin-3-yl)prop-2-enoate]
< 3.16	< 3.16	N#Cc1ccc(NS(=O)(=O)c2c[nH]c3c2ccc2ccccc23)c(F)c1 [Compound I-152, N-(4-cyano-2-fluorophenyl)-1H-benzo[g]indole-3-sulfonamide]
3.16 to 31.6	3.16 to 31.6	N#CCOc1cc(F)c(NS(=O)(=O)c2csc3cc(Cl)ccc23)cc1F [Compound I-313, 6-chloro-N-[4-(cyanomethoxy)-2,5-difluorophenyl]-1-benzothiophene-3-sulfonamide]
3.16 to 31.6	3.16 to 31.6	O=S(=O)(Nc1ccc(F)c2nsnc12)c1c[nH]c2cc(Cl)ccc12 [Compound I-127, 6-chloro-N-(7-fluoro-2,1,3-benzothiadiazol-4-yl)-1H-indole-3-sulfonamide]
3.16 to 31.6	< 3.16	O=S(=O)(Nc1cc(F)c(Cl)cc1F)c1c[nH]c2c(OCC(F)F)c(Cl)ccc12 [Compound I-262, 6-chloro-N-(4-chloro-2,5-difluorophenyl)-7-(2,2-difluoroethoxy)-1H-indole-3-sulfonamide]
3.16 to 31.6	< 3.16	O=S(=O)(Nc1cc(F)c(F)cc1F)c1c[nH]c2cc(Cl)ccc12 [Compound I-203, 6-chloro-N-(2,4,5-trifluorophenyl)-1H-indole-3-sulfonamide]
3.16 to 31.6	3.16 to 31.6	O=S(=O)(Nc1nc(F)c(Cl)cc1F)c1c[nH]c2c1ccc1cccnc12 [Compound I-316, N-(5-chloro-3,6-difluoropyridin-2-yl)-1H-pyrrolo[3,2-h]quinoline-3-sulfonamide]

IC50 [1] [nM]	Kb [2] [nM]	Compound
< 3.16	< 3.16	COc1nc(NS(=O)(=O)c2c[nH]c3c(F)c(Cl)ccc23)c(F)cc1CC#N [Compound I-354, 6-chloro-N-[5-(cyanomethyl)-3-fluoro-6-methoxypyridin-2-yl]-7-fluoro-1H-indole-3-sulfonamide]
3.16 to 31.6	3.16 to 31.6	COc1nc(NS(=O)(=O)c2c[nH]c3cc([N+](=O)[O-])ccc23)c(F)cc1CC#N [Compound I-351, N-[5-(cyanomethyl)-3-fluoro-6-methoxypyridin-2-yl]-6-nitro-1H-indole-3-sulfonamide]
< 3.16	< 3.16	N#Cc1cc(F)c(NS(=O)(=O)c2c[nH]c3cc(Cl)ccc23)cc1F [Compound I-185, 6-chloro-N-(4-cyano-2,5-difluorophenyl)-1H-indole-3-sulfonamide]
3.16 to 31.6	3.16 to 31.6	COc1ccc2c(S(=O)(=O)Nc3nc(OC)c(Cl)cc3F)c[nH]c2c1Cl [Compound I-356, 7-chloro-N-(5-chloro-3-fluoro-6-methoxypyridin-2-yl)-6-methoxy-1H-indole-3-sulfonamide]
3.16 to 31.6	3.16 to 31.6	COc1cc(C#N)ccc1NS(=O)(=O)c1c[nH]c2cc(Cl)ccc12 [Compound I-126, 6-chloro-N-(4-cyano-2-methoxyphenyl)-1H-indole-3-sulfonamide]
3.16 to 31.6	3.16 to 31.6	O=S(=O)(Nc1cc(F)c(Cl)cc1F)c1c[nH]c2cc(OCC(F)(F)F)ccc12 [Compound I-300, N-(4-chloro-2,5-difluorophenyl)-6-(2,2,2-trifluoroethoxy)-1H-indole-3-sulfonamide]
> 31.6	3.16 to 31.6	COc1cc(Cl)c(F)cc1NS(=O)(=O)c1c[nH]c2cc(Cl)ccc12 [Compound I-208, 6-chloro-N-(4-chloro-5-fluoro-2-methoxyphenyl)-1H-indole-3-sulfonamide]
< 3.16	3.16 to 31.6	N#Cc1ccc(NS(=O)(=O)c2c[nH]c3cc(C4CC4)ccc23)cc1 [Compound I-133, N-(4-cyanophenyl)-6-cyclopropyl-1H-indole-3-sulfonamide]
< 3.16	< 3.16	COc1nc(NS(=O)(=O)c2c[nH]c3c(OC)c(Cl)ccc23)c(F)cc1Cl [Compound I-309, 6-chloro-N-(5-chloro-3-fluoro-6-methoxypyridin-2-yl)-7-methoxy-1H-indole-3-sulfonamide]
< 3.16	< 3.16	O=S(=O)(Nc1cc(F)c(Br)cc1F)c1c[nH]c2cc(Cl)ccc12 [Compound I-213, N-(4-bromo-2,5-difluorophenyl)-6-chloro-1H-indole-3-sulfonamide]
> 31.6	> 31.6	O=S(=O)(Nc1ccc(F)c2nsnc12)c1c[nH]c2nc(Cl)ccc12 [Compound I-226, 6-chloro-N-(7-fluoro-2,1,3-benzothiadiazol-4-yl)-1H-pyrrolo[2,3-b]pyridine-3-sulfonamide]
3.16 to 31.6	3.16 to 31.6	O=S(=O)(Nc1ccc(C(F)(F)F)cc1F)c1c[nH]c2nc(Cl)ccc12 [Compound I-296, 6-chloro-N-[2-fluoro-4-(trifluoromethyl)phenyl]-1H-pyrrolo[2,3-b]pyridine-3-sulfonamide]
< 3.16	< 3.16	COc1nc(NS(=O)(=O)c2c[nH]c3c2ccc2cccnc23)c(F)cc1Cl [Compound I-328, N-(5-chloro-3-fluoro-6-methoxypyridin-2-yl)-1H-pyrrolo[3,2-h]quinoline-3-sulfonamide]
> 31.6	> 31.6	COc1ccc2c(S(=O)(=O)Nc3ccc(Cl)cc3F)c[nH]c2c1 [Compound I-69, N-(4-chloro-2-fluorophenyl)-6-methoxy-1H-indole-3-sulfonamide]
< 3.16	< 3.16	COc1nc(NS(=O)(=O)c2c[nH]c3c(F)c(Cl)ccc23)c(F)cc1Cl [Compound I-319, 6-chloro-N-(5-chloro-3-fluoro-6-methoxypyridin-2-yl)-7-fluoro-1H-indole-3-sulfonamide]
